{"source": "patent US11345761B2", "about": "“Esterified selenium polysaccharide and preparation method and use therefor” (AI-MAY ZHONG KE SELENIUM TECHNOLOGY (TIANJIN) CO., LTD, priority 2018, dated 2022)", "key": {"IL-4": {"tested_on": "IL-4", "test": "IL-4 expression in B-6 splenocytes, flow cytometry", "type": "cell-based", "settings": "2 to 5 micrograms selenium/mL, 48 hours, compared with 1,3-glucose hexasaccharide", "description": "(§1) B-6 splenocytes were used as the experimental model. Carrageenan, chitohexaose, 1,3-glucose hexasaccharide, PMA+innomycin were used as controls and incubated in the culture medium containing the esterified selenium polysaccharide of the present invention (2 to 5 micrograms selenium/mL) for 48 hours to detect the expression of IL-4 and IFN-γ thereof.\n(§2) In the Example, the culture medium for culturing B-6 spleen cells is the culture medium for culturing B-6 spleen cells conventionally in the art, and contains essential and non-essential amino acids, vitamins, glucose, hormones, growth factors, trace minerals and low-concentration fetal bovine serum (2%) and 5 mi penicillin/streptomycin solution. The buffer system of the medium is phosphate buffered saline solution PBS, and the pH value is 7.4 after equilibrating in a cell incubator containing 5% CO2.\n(§3) After the cells were harvested, they were stained with BD Bioscience's Cytofix/Cytoperm kit and detected by flow cytometry."}, "[1]": {"test": "Blood detection after feeding mice", "type": "in vivo", "parameters": "red blood cell: unit not given here", "source_text": "Mice, which were used as a model, were fed with the esterified selenium polysaccharide prepared by the present invention continuously at a selenium dose of 2 to 5 micrograms of selenium/day for 2 weeks. A polysaccharide without the esterified selenium was used as a control. […] The above-mentioned detection data became stable starting from week 5."}, "[2]": {"tested_on": "superoxide dismutase (SOD)", "test": "Serum SOD activity after feeding chicks", "type": "in vivo", "settings": "5 micrograms of selenium/day", "description": "(§4) Chicks, which were used as a model, were fed with the esterified selenium polysaccharide of the present invention continuously at a dose of 5 micrograms of selenium/day after birth. A polysaccharide without the esterified selenium was used as a control. On days 7, 14, 21, and 28 after feeding, the assay of the activity of glutathione peroxidase (GSH-Px) and superoxide dismutase (SOD) was performed (using commercially available kits EnzyChrom™ Glutahione Peroxidase Assay Kit and MIBio Mouse superoxide dismutase (SOD) kit for completion of the assay)."}, "[3]": {"tested_on": "glutathione peroxidase (GSH-Px)", "test": "Serum GSH-Px activity after feeding chicks", "type": "in vivo", "settings": "5 micrograms of selenium/day", "description": "as §4"}, "IFN-γ": {"tested_on": "IFN-γ", "test": "IFN-γ expression in B-6 splenocytes, flow cytometry", "type": "cell-based", "settings": "2 to 5 micrograms selenium/mL, 48 hours, compared with 1,3-glucose hexasaccharide", "description": "as §1, §2, §3"}, "[4]": {"settings": "fed 2 to 5 micrograms of selenium/day, week 3 to week 6"}}}
{"substance": "esterified selenium polysaccharide", "values": [{"measurement": "increase of maximum expression of IL-4", "setting": "IL-4", "value": 60, "unit": "%"}, {"measurement": "Selenium content in serum", "setting": "[1]; Week 1, 2 μg/day selenium", "value": 0.4, "unit": "µg/L"}, {"measurement": "red blood cell", "setting": "[1]; Week 1, 2 μg/day selenium", "value": "9.58 ×10^6"}, {"measurement": "white blood cell", "setting": "[1]; Week 1, 2 μg/day selenium", "value": 7260, "unit": "mL⁻¹"}, {"measurement": "Selenium content in serum", "setting": "[1]; Week 1, 5 μg/day selenium", "value": 0.7, "unit": "µg/L"}, {"measurement": "red blood cell", "setting": "[1]; Week 1, 5 μg/day selenium", "value": "9.66 ×10^6"}, {"measurement": "white blood cell", "setting": "[1]; Week 1, 5 μg/day selenium", "value": 7290, "unit": "mL⁻¹"}, {"measurement": "Selenium content in serum", "setting": "[1]; Week 3, 2 μg/day selenium", "value": 2.9, "unit": "µg/L"}, {"measurement": "red blood cell", "setting": "[1]; Week 3, 2 μg/day selenium", "value": "9.75 ×10^6"}, {"measurement": "white blood cell", "setting": "[1]; Week 3, 2 μg/day selenium", "value": 7360, "unit": "mL⁻¹"}, {"measurement": "Selenium content in serum", "setting": "[1]; Week 3, 5 μg/day selenium", "value": 4.5, "unit": "µg/L"}, {"measurement": "red blood cell", "setting": "[1]; Week 3, 5 μg/day selenium", "value": "9.97 ×10^6"}, {"measurement": "white blood cell", "setting": "[1]; Week 3, 5 μg/day selenium", "value": 7570, "unit": "mL⁻¹"}, {"measurement": "Selenium content in serum", "setting": "[1]; Week 4, 2 μg/day selenium", "value": 6.1, "unit": "µg/L"}, {"measurement": "red blood cell", "setting": "[1]; Week 4, 2 μg/day selenium", "value": "10.5 ×10^6"}, {"measurement": "white blood cell", "setting": "[1]; Week 4, 2 μg/day selenium", "value": 7590, "unit": "mL⁻¹"}, {"measurement": "Selenium content in serum", "setting": "[1]; Week 4, 5 μg/day selenium", "value": 6.8, "unit": "µg/L"}, {"measurement": "red blood cell", "setting": "[1]; Week 4, 5 μg/day selenium", "value": "10.5 ×10^6"}, {"measurement": "white blood cell", "setting": "[1]; Week 4, 5 μg/day selenium", "value": 7910, "unit": "mL⁻¹"}, {"measurement": "Selenium content in serum", "setting": "[1]; Week 5, 2 μg/day selenium", "value": 6.9, "unit": "µg/L"}, {"measurement": "red blood cell", "setting": "[1]; Week 5, 2 μg/day selenium", "value": "11.1 ×10^6"}, {"measurement": "white blood cell", "setting": "[1]; Week 5, 2 μg/day selenium", "value": 7960, "unit": "mL⁻¹"}, {"measurement": "Selenium content in serum", "setting": "[1]; Week 5, 5 μg/day selenium", "value": 7.3, "unit": "µg/L"}, {"measurement": "red blood cell", "setting": "[1]; Week 5, 5 μg/day selenium", "value": "11.4 ×10^6"}, {"measurement": "white blood cell", "setting": "[1]; Week 5, 5 μg/day selenium", "value": 7990, "unit": "mL⁻¹"}, {"measurement": "Selenium content in serum", "setting": "[1]; Week 6, 2 μg/day selenium", "value": 7.0, "unit": "µg/L"}, {"measurement": "red blood cell", "setting": "[1]; Week 6, 2 μg/day selenium", "value": "11.2 ×10^6"}, {"measurement": "white blood cell", "setting": "[1]; Week 6, 2 μg/day selenium", "value": 7960, "unit": "mL⁻¹"}, {"measurement": "Selenium content in serum", "setting": "[1]; Week 6, 5 μg/day selenium", "value": 7.3, "unit": "µg/L"}, {"measurement": "red blood cell", "setting": "[1]; Week 6, 5 μg/day selenium", "value": "11.5 ×10^6"}, {"measurement": "white blood cell", "setting": "[1]; Week 6, 5 μg/day selenium", "value": 7990, "unit": "mL⁻¹"}, {"measurement": "increase of red blood cells", "setting": "[1]; [4]", "value": 20, "unit": "%"}, {"measurement": "increase of selenium content in serum", "setting": "[1]; [4]", "value": "more than 30%"}, {"measurement": "increase of white blood cells", "setting": "[1]; [4]", "value": 10, "unit": "%"}, {"measurement": "Serum SOD", "setting": "[2]; Day 1", "value": 180, "unit": "U/mg"}, {"measurement": "Serum SOD", "setting": "[2]; Day 7", "value": 191, "unit": "U/mg"}, {"measurement": "Serum SOD", "setting": "[2]; Day 14", "value": 195, "unit": "U/mg"}, {"measurement": "Serum SOD", "setting": "[2]; Day 21", "value": 190, "unit": "U/mg"}, {"measurement": "Serum SOD", "setting": "[2]; Day 28", "value": 187, "unit": "U/mg"}, {"measurement": "increase of SOD at maximum", "setting": "[2]; maximum on days 7-14", "value": 12, "unit": "%"}, {"measurement": "Serum GSH-Px", "setting": "[3]; Day 1", "value": 1869, "unit": "U/mg"}, {"measurement": "Serum GSH-Px", "setting": "[3]; Day 7", "value": 1879, "unit": "U/mg"}, {"measurement": "Serum GSH-Px", "setting": "[3]; Day 14", "value": 1975, "unit": "U/mg"}, {"measurement": "Serum GSH-Px", "setting": "[3]; Day 21", "value": 2150, "unit": "U/mg"}, {"measurement": "Serum GSH-Px", "setting": "[3]; Day 28", "value": 2090, "unit": "U/mg"}, {"measurement": "increase of chick GHS-Px activity at maximum", "setting": "[3]; maximum on days 14-21", "value": 15, "unit": "%"}, {"measurement": "increase of maximum expression of IFN-γ", "setting": "IFN-γ", "value": 36, "unit": "%"}]}
